Assay results taken from ChEMBL document CHEMBL1201862, “PubChem BioAssay data set” (2004).
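Cells were grown in 96-well plates and exposed to each compound for 48 hours at five concentrations; endpoints were interpolated linearly between bracketing concentrations, or set to the highest concentration if not reached. GI50 marks 50% less growth.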 Calls of active or inactive are those of the source. Rule as the data show it: active = GI50 up to about 1.1 µM and inactive = higher.

Experiments:
Test in all cases: DTP human tumour cell line panel, 48 h
DLD-1 = test system: DLD-1
COLO 205 = test system: COLO 205
HL-60 = test system: HL-60
EKVX = test system: EKVX
OVCAR-3 = test system: OVCAR-3
CCRF-CEM = test system: CCRF-CEM
XF498 = test system: XF498
KM-20L2 = test system: KM-20L2
IGROV-1 = test system: IGROV-1
SF-295 = test system: SF-295
A498 = test system: A498
NCI/ADR-RES = test system: NCI/ADR-RES
PC-3 = test system: PC-3
MDA-MB-435 = test system: MDA-MB-435
DU-145 = test system: DU-145
MCF7 = test system: MCF7
T47D = test system: T47D
BT-549 = test system: BT-549
MDA-MB-231 = test system: MDA-MB-231
DMS-273 = test system: DMS-273

Measured: GI50

Cc1c(OC(C)C(=O)O)ccc2c(-c3ccccc3)cc(=O)oc12 (centres undefined)
inactive: DLD-1 > 100 µM | COLO 205 > 100 µM | HL-60 > 100 µM | EKVX > 100 µM | OVCAR-3 > 100 µM | CCRF-CEM > 100 µM | XF498 > 100 µM | KM-20L2 > 100 µM | IGROV-1 > 100 µM | SF-295 > 100 µM | A498 > 100 µM

CC(C)C(=O)Cc1ccc2ccccc2n1
inactive: NCI/ADR-RES > 100 µM | PC-3 89.7 µM | COLO 205 > 100 µM | HL-60 > 100 µM | EKVX 83.4 µM | MDA-MB-435 70 µM | DU-145 > 100 µM | OVCAR-3 > 100 µM | MCF7 > 100 µM | T47D > 100 µM | BT-549 > 100 µM | MDA-MB-231 > 100 µM | CCRF-CEM > 100 µM | IGROV-1 73.5 µM | SF-295 > 100 µM | A498 > 100 µM

COc1ccc(-c2cs/c(=N\c3ccccc3)n2CCCN(C)C)cc1
inactive: NCI/ADR-RES 15.2 µM | PC-3 12.6 µM | HL-60 5.58 µM | MDA-MB-435 18.4 µM | OVCAR-3 17.1 µM | BT-549 19.2 µM | MDA-MB-231 44.2 µM | CCRF-CEM 21.1 µM | SF-295 13 µM | A498 22 µM

CCN(CC)CCO[Si](OCCN(CC)CC)(OCCN(CC)CC)OCCN(CC)CC
inactive: DMS-273 > 100 µM | DLD-1 > 100 µM | COLO 205 > 100 µM | EKVX > 100 µM | OVCAR-3 > 100 µM | XF498 > 100 µM | KM-20L2 > 100 µM | IGROV-1 > 100 µM | SF-295 > 100 µM

CSc1sc(C)cc1-c1nsc(=O)o1
inactive: NCI/ADR-RES > 100 µM | PC-3 > 100 µM | COLO 205 > 100 µM | HL-60 > 100 µM | EKVX > 100 µM | MDA-MB-435 > 100 µM | DU-145 > 100 µM | MCF7 > 100 µM | CCRF-CEM > 100 µM | IGROV-1 > 100 µM | SF-295 > 100 µM | A498 > 100 µM

COc1ccc2c(c1)OC(c1ccccc1O)CC2=O (centres undefined)
inactive: DLD-1 29 µM | EKVX 96.8 µM | OVCAR-3 28.1 µM | CCRF-CEM 30.5 µM | XF498 40.7 µM | KM-20L2 > 100 µM | SF-295 45.7 µM | A498 53.1 µM

N=c1n(C(=O)N2CCCC2)c2cc(Cl)ccc2n1C1=NCCN1
inactive: NCI/ADR-RES 93.5 µM | PC-3 86.9 µM | COLO 205 > 100 µM | HL-60 38.8 µM | EKVX > 100 µM | MDA-MB-435 52 µM | DU-145 50 µM | OVCAR-3 80.5 µM | MCF7 35.8 µM | T47D 24.2 µM | BT-549 60.1 µM | MDA-MB-231 67.9 µM | CCRF-CEM 41.7 µM | IGROV-1 73.3 µM | SF-295 > 100 µM | A498 > 100 µM

O=C1C(Cl)C2(CC(/C=C/c3cccs3)=NN2c2cccc(S(=O)(=O)O)c2)N1c1nc2ccccc2s1 (centres undefined)
inactive: NCI/ADR-RES > 100 µM | PC-3 > 100 µM | COLO 205 > 100 µM | HL-60 64.6 µM | EKVX 24.2 µM | MDA-MB-435 45.8 µM | DU-145 21.6 µM | MCF7 46.6 µM | T47D 13.6 µM | BT-549 55.6 µM | MDA-MB-231 > 100 µM | CCRF-CEM 20.1 µM | IGROV-1 21.1 µM | A498 76.2 µM

C#CCN(Cc1ccc2nc(-c3ccccc3)c(Cl)nc2c1)c1ccc(F)cc1
inactive: NCI/ADR-RES > 100 µM | PC-3 > 100 µM | COLO 205 51.3 µM | HL-60 15.1 µM | EKVX > 100 µM | MDA-MB-435 > 100 µM | DU-145 95.7 µM | OVCAR-3 > 100 µM | MCF7 63.8 µM | T47D 38 µM | BT-549 > 100 µM | MDA-MB-231 > 100 µM | CCRF-CEM 17.5 µM | IGROV-1 > 100 µM | SF-295 > 100 µM | A498 > 100 µM

O=C(NC(Cc1ccc(Cl)cc1)C(=O)O)c1ccc(I)cc1 (centres undefined)
inactive: DMS-273 > 100 µM | DLD-1 > 100 µM | NCI/ADR-RES > 100 µM | COLO 205 > 100 µM | HL-60 > 100 µM | OVCAR-3 76.7 µM | MCF7 > 67 µM | CCRF-CEM > 100 µM | XF498 > 64.4 µM | IGROV-1 > 100 µM | SF-295 > 100 µM | A498 > 100 µM

Brc1cc(CCOC2CCCCO2)c(-c2sccc2CCOC2CCCCO2)s1 (centres undefined)
inactive: NCI/ADR-RES 40.7 µM | PC-3 42.2 µM | COLO 205 43.4 µM | HL-60 17.8 µM | EKVX 47.6 µM | MDA-MB-435 37.7 µM | DU-145 > 100 µM | OVCAR-3 71.4 µM | MCF7 20.3 µM | T47D > 100 µM | BT-549 49.7 µM | MDA-MB-231 > 100 µM | CCRF-CEM 19.9 µM | IGROV-1 53.2 µM | SF-295 18.7 µM | A498 > 69 µM

CCc1ncc(C(C)(O)c2ccccc2)n1Cc1ccccc1 (centres undefined)
inactive: NCI/ADR-RES 37.7 µM | PC-3 43.4 µM | COLO 205 27.8 µM | EKVX 56.2 µM | MDA-MB-435 22.4 µM | DU-145 > 100 µM | OVCAR-3 40.6 µM | MCF7 67.8 µM | T47D 73.6 µM | BT-549 45.3 µM | MDA-MB-231 29.3 µM | CCRF-CEM 48.9 µM | IGROV-1 42.4 µM | SF-295 > 100 µM

Cn1c(=O)c(Cl)c(N=[N+]=[N-])c2ccccc21
inactive: NCI/ADR-RES > 100 µM | PC-3 78.7 µM | COLO 205 > 100 µM | EKVX 22.1 µM | DU-145 > 100 µM | OVCAR-3 33.3 µM | MCF7 67.3 µM | T47D 64 µM | MDA-MB-231 60.5 µM | CCRF-CEM 55.7 µM | IGROV-1 > 100 µM | SF-295 > 100 µM | A498 > 100 µM

CC1=CC(=O)CC2(C)CCC(C(C)CC(=O)CC(C)C)CC12 (centres undefined)
inactive: NCI/ADR-RES 29.6 µM | PC-3 19.5 µM | COLO 205 17.3 µM | HL-60 4.39 µM | EKVX 48.9 µM | MDA-MB-435 20.3 µM | DU-145 62.4 µM | MCF7 25.6 µM | MDA-MB-231 42.8 µM | CCRF-CEM 23.9 µM | IGROV-1 26.2 µM | SF-295 32.5 µM | A498 > 100 µM

CC(O)(P(=O)(O)O)P(=O)(O)OCC(O)CN1CCOCC1 (centres undefined)
inactive: NCI/ADR-RES > 100 µM | PC-3 > 100 µM | COLO 205 > 100 µM | HL-60 > 100 µM | EKVX > 100 µM | MDA-MB-435 > 100 µM | DU-145 > 100 µM | MCF7 > 100 µM | BT-549 > 100 µM | MDA-MB-231 > 100 µM | CCRF-CEM > 100 µM | IGROV-1 > 100 µM | SF-295 > 100 µM | A498 > 100 µM

CCCCCCCc1cscc1-c1cscc1Br
inactive: NCI/ADR-RES 90.8 µM | PC-3 33 µM | COLO 205 18 µM | EKVX 56.1 µM | MDA-MB-435 35.9 µM | DU-145 48.4 µM | MCF7 34.8 µM | T47D 24.2 µM | BT-549 > 100 µM | MDA-MB-231 52.2 µM | CCRF-CEM 18.2 µM | IGROV-1 59.7 µM | SF-295 26 µM | A498 86.7 µM

C=CCNC(=O)N(CCC)CCCC(NC(C)=O)C(=O)NCc1ccccc1 (centres undefined)
inactive: DMS-273 > 100 µM | COLO 205 > 100 µM | HL-60 > 100 µM | EKVX > 100 µM | OVCAR-3 > 100 µM | CCRF-CEM > 100 µM | XF498 > 100 µM | KM-20L2 > 100 µM | IGROV-1 > 100 µM | SF-295 > 100 µM | A498 > 100 µM

CC(C)C1=C(O)C(=O)C2=C(C1=O)C(OC=O)C(O)C1C(C)(C)CCCC21C (centres undefined)
inactive: PC-3 11.2 µM | COLO 205 3.54 µM | HL-60 3.56 µM | EKVX 10.1 µM | MDA-MB-435 2.73 µM | DU-145 5.06 µM | OVCAR-3 12.1 µM | MCF7 11.4 µM | T47D 8.24 µM | BT-549 8.36 µM | MDA-MB-231 5.79 µM | CCRF-CEM 3.27 µM | IGROV-1 10.3 µM | SF-295 14.2 µM | A498 14.8 µM

COC(=O)N[C@H](C(=O)NC(OCc1ccccc1)C1COC(C)(C)O1)C(C)O[Si](C)(C)C(C)(C)C (some centres undefined)
inactive: NCI/ADR-RES > 100 µM | PC-3 32.4 µM | COLO 205 > 100 µM | HL-60 75.7 µM | EKVX > 100 µM | DU-145 > 100 µM | MCF7 27.6 µM | T47D > 100 µM | CCRF-CEM > 100 µM | IGROV-1 > 100 µM | A498 > 100 µM

OC1(c2ccc(Cl)cc2)c2ccc3ccccc3c2C2=N[C@H]3CCCC[C@@H]3N21 (some centres undefined)
inactive: NCI/ADR-RES 1.63 µM | PC-3 6.32 µM | COLO 205 5.81 µM | HL-60 5.69 µM | EKVX 3.09 µM | MDA-MB-435 10.7 µM | DU-145 3.39 µM | OVCAR-3 1.63 µM | MCF7 8.45 µM | T47D 3.13 µM | MDA-MB-231 18 µM | CCRF-CEM 21.7 µM | IGROV-1 13.5 µM | SF-295 3.64 µM | A498 20.3 µM

O=c1c2cc(I)ccc2nc(-c2cccs2)n1O
inactive: NCI/ADR-RES 41.1 µM | PC-3 52.1 µM | COLO 205 > 100 µM | HL-60 34.3 µM | EKVX 26.4 µM | MDA-MB-435 34.8 µM | DU-145 27.7 µM | OVCAR-3 15.6 µM | MCF7 50 µM | T47D 26.2 µM | BT-549 33.2 µM | CCRF-CEM 27.7 µM | IGROV-1 30.5 µM | SF-295 31.1 µM
